{
  "source": "patent US20070086949A1",
  "about": "“Method of bioimaging using nanocrystals of fluorescent dyes” (priority 2005, published 2007)",
  "key": {"[1]": {"tested_on": "human cervix carcinoma cell line Hela", "assay": "Confocal imaging of HeLa cells incubated with dye nanocrystal water dispersion", "format": "cell-based", "settings": "confocal microscopy", "method": "For cellular imaging, human cervix carcinoma cell line Hela was incubated with the prepared dye dispersion. The cell culture and imaging conditions are described in detail here. Human cervical carcinoma cell line (HeLa) was maintained in Dulbecco's modified eagle medium with 10% FBS according to the manufacturers instructions (American Type Culture Collection, Manassas, Va.). To study the uptake and imaging of HPPH nanocrystals, the cells were trypsinized and resuspended in the corresponding suitable media at a concentration of around 7.5×10^5/ml. 60 μl of this suspension was transferred to each 35 mm culture plate and 2 ml of the corresponding full medium was added. These plates were then placed in an incubator at 37° C. with 5% CO2 (VWR Scientific, model 2400). After 36 hours of incubation, the cells (about 60% confluency) were rinsed with PBS, and 2 ml of the corresponding fresh media was added to the plates. Finally, 50 μl of dye nanocrystals was added and mixed properly. Plates were returned to the incubator (37° C., 5% CO2) for the required incubation period. 50 μl of dye/Tween80 micelles of same dye concentration was used as control and separate culture plates were treated and incubated for the same time period as in the case of nanocrystals. […]"}, "[2]": {"assay": "Size of TPB and perylene nanocrystals in water dispersion", "format": "physicochemical", "method": "Briefly, 200 μl of dye acetone solution (10 mM concentration ) was injected into magnetically stirring water (10 ml). The average size of nanoparticle was estimated to vary from 50 nm to 200 nm depending on the concentration of original organic solution and water temperature. A homogenous dispersion of the dye nanocrystals without any noticeable aggregation or clumps was produced. Optical properties of the prepared nanocrystals were studied using UV-Visible and fluorescence spectroscopy. UV-visible absorption spectra as well as the fluorescence spectra of the nanocrystals were acquired using a Shimadzu 3600 UV spectrometer and a Jobin-Yvon Spectramax fluorimeter. Changes in absorption spectra as well as fluorescence intensity changes (such as quenching) were studied by comparing the spectra of nanocrystals in water with that of organic solution.\nFor this experiment, perylene was dissolved on DMSO at 1 mM, 10 mM or 100 mM. The nanocrystals were prepared as described in Example 1 by adding to water at 4° C. or 80° C."}},
  "data": [
    {"smiles": "c1cc2cccc3c4cccc5cccc(c(c1)c23)c54", "note": "[perylene]", "values": [
      {"measurement": "intracellular staining pattern", "setting": "[1]", "result": "staining the entire cytoplasm with higher dye accumulation in vescicular bodies such as lysosomes"},
      {"measurement": "size of the nanocrystals versus concentration of the dye", "setting": "[2]; perylene in DMSO at 1 mM, 10 mM or 100 mM, added to water at 4° C. or 80° C.", "result": "increase with increasing concentration"},
      {"measurement": "size of the nanocrystals versus water temperature", "setting": "[2]; water at 4° C. or 80° C.", "result": "greater at the higher water temperature"}
    ]}
  ]
}
